Assay results reported in ChEMBL document CHEMBL1132516, “Further hypotensive metabolites from Verbesina caracasana” (1999).

Legend:
[1] = test system: Rattus norvegicus; experiment: Percent change in tidal volume expressed in microL in anesthetized rats by i.v. administration; format: functional
[2] = test system: Rattus norvegicus; experiment: Percent change in systolic blood pressure (mmHg)in anesthetized rats by i.v. administration; format: functional, Artery
[3] = test system: Rattus norvegicus; experiment: Percent change in heart rate expressed in beats / min in anesthetized rats by i.v. administration; format: functional
[4] = test system: Rattus norvegicus; experiment: Maximum rate of rise of the left ventricular isovolumetric pressure in anesthetized rats by i.v. administration; format: functional, Heart left ventricle
[5] = test system: Rattus norvegicus; experiment: Percent change in respiratory frequency (RF) expressed in beats / min in anesthetized rats by i.v. administration; format: functional
[6] = test system: Rattus norvegicus; experiment: Percent change in diastolic blood pressure (mmHg)in anesthetized rats by i.v. administration; format: functional, Artery
[7] = test system: Rattus norvegicus; experiment: Maximum rate of rise of the left ventricular isovolumetric pressure (dP/dt, an index of cardiac inotropism in mmHg/sec)in anesthetized rats by i.v. administration; format: functional, Heart left ventricle

SMILES | Change [1] [%] | Change [2] [%] | Change [3] [%] | Change [4] [%] | Change [5] [%] | Change [6] [%] | Change [7] [%]
COc1ccc(/C=C/C(=O)NCCCC/N=C(\N)NCC=C(C)C)cc1OC | 41 | -26 | 5 | 57 | 21 | -29 | 
COc1ccc(/C=C/C(=O)NCCCCN=C(N)N)cc1OC | 12 | -8 | 0 | 11 | 4 | -8 | 
CC(C)=CCNC(=N)NCCCCN | 11 | -11 | -4 | 23 | 4 | -17 | 
NCCCCN=C(N)N [AGMATINE] | 14 | -8 | 0 | 16 | 12 | -10 | 
Clc1cccc(Cl)c1NC1=NCCN1 [CLONIDINE] |  | -16 | -15 | -21 |  | -17 | 
CC(C)=CCN=C(N)N [GALEGINE] | 31 | -27 | -27 | 32 | 70 | -33 | 
N=C(N)NCCN1CCCCCCC1 [GUANETHIDINE] |  | -26 | -7 | -17 |  | -24 | 
C[N+](C)(C)CCCCCC[N+](C)(C)C.[Cl-].[Cl-] [HEXAMETHONIUM CHLORIDE] |  | -42 | -13 |  |  | -43 | -69
NCCc1c[nH]cn1 [HISTAMINE] |  | -25 | -3 |  |  | -26 | -16
COc1ccc(Cc2nccc3cc(OC)c(OC)cc23)cc1OC [PAPAVERINE] |  | -18 | -5 |  |  | -16 | -19
COC(=O)[C@H]1[C@H]2C[C@@H]3c4[nH]c5cc(OC)ccc5c4CCN3C[C@H]2C[C@@H](OC(=O)c2cc(OC)c(OC)c(OC)c2)[C@@H]1OC [RESERPINE] |  | -31 | -15 |  |  | -32 | -22
